What all share (assay type): cell-based
The test system of assay [1] is Escherichia coli ATCC 25922. Briefly: MIC, standard microdilution technique. A digest of the protocol:
(§1)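 Antibacterial activity was determined by broth microdilution following the NCCLS approved standard M7-A5 (5th edition, 2000) for dilution susceptibility testing of aerobically growing bacteria.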

Assay [2] concerns Staphylococcus aureus 1086. Briefly: MIC, standard microdilution technique. A digest of the protocol: as §1
Assay [3] concerns Staphylococcus aureus 745. Briefly: MIC, standard microdilution technique. A digest of the protocol:
as §1
Background: Dilution methods test growth across graded concentrations, often in twofold steps.

In assay [4] the test system is Staphylococcus aureus ATCC 29213. Briefly: MIC, standard microdilution technique. In short, it runs like this: as §1
Assay [5] relates to Streptococcus pneumoniae 12288. Briefly: MIC, standard microdilution technique. A digest of the protocol: as §1
Assay [6] relates to Streptococcus pneumoniae SL199T. Briefly: MIC, standard microdilution technique. A digest of the protocol: as §1
For assay [7], the system named is Streptococcus pneumoniae l/l. Briefly: MIC, standard microdilution technique. A digest of the protocol:
as §1

For assay [8], the system named is Streptococcus pneumoniae ¼. Briefly: MIC, standard microdilution technique. In short, it runs like this: as §1
In assay [9] the test system is Haemophilus influenzae 12214. Briefly: MIC, standard agar dilution method using HTM medium. A digest of the protocol: (§2)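 MICs were read following the NCCLS approved standard (M7-A5) for dilution susceptibility testing of aerobically growing bacteria. Compounds were tested against Haemophilus influenzae.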
Assay [10] deals with Haemophilus influenzae B1501. The description is as above. A digest of the protocol: as §2
Assay [11] relates to Haemophilus influenzae QK12/87. The assay is described as above. In short, it runs like this: as §2
In assay [12] the test system is Haemophilus influenzae QK50. Described as above. A digest of the protocol:
as §2

Converted amounts (≈) assume the structure as drawn.

As for `CC[C@H]1OC(=O)[C@H](C)C(=O)[C@H](C)[C@@H](O[C@@H]2O[C@H](C)C[C@H](N(C)C)[C@H]2O)[C@](C)(OC)C[C@@H](C)C(=O)[C@H](C)[C@H]2[C@@H](SCC(=O)NCc3ccc4c(c3)OCO4)C(=O)O[C@@]21C` [Example 30], the “minimum inhibitory concentration (MIC), Strain D” value in assay [1] is over 32 µg/mL. Also, in assay [2], the “minimum inhibitory concentration (MIC), Strain B” value was “<=0.06 μg/ml”. In [3], the “minimum inhibitory concentration (MIC), Strain C” value was over 32 µg/mL. In [4], the “minimum inhibitory concentration (MIC), Strain A” value was 0.125 µg/mL (≈ 0.15 µM). In assay [5], the “minimum inhibitory concentration (MIC), Strain H” value was over 32 µg/mL. Besides, the “minimum inhibitory concentration (MIC), Strain G” value in [6] amounted to 16 µg/mL (≈ 19.2 µM). In addition, the “minimum inhibitory concentration (MIC), Strain E” value in assay [7] is “<=0.06 μg/ml”. Further, in assay [8], the “minimum inhibitory concentration (MIC), Strain F” value is 32 µg/mL (≈ 38.3 µM). The “minimum inhibitory concentration (MIC), Strain K” value in assay [9] amounted to 16 µg/mL (≈ 19.2 µM). In addition, in assay [10], the “minimum inhibitory concentration (MIC), Strain M” value was determined as 8 µg/mL (≈ 9.58 µM). Further, the “minimum inhibitory concentration (MIC), Strain I” value in assay [11] stood at 16 µg/mL (≈ 19.2 µM). Also, the “minimum inhibitory concentration (MIC), Strain L” value in [12] was found to be 16 µg/mL (≈ 19.2 µM).

In the case of `CC[C@H]1OC(=O)[C@H](C)C(=O)[C@H](C)[C@@H](O[C@@H]2O[C@H](C)C[C@H](N(C)C)[C@H]2O)[C@](C)(OC)C[C@@H](C)C(=O)[C@H](C)[C@H]2[C@@H](SCC(=O)NCc3ccco3)C(=O)O[C@@]21C` [Example 31], the “minimum inhibitory concentration (MIC), Strain D” value in [1] was over 32 µg/mL. The “minimum inhibitory concentration (MIC), Strain B” value in assay [2] turned out to be 0.25 µg/mL (≈ 0.32 µM). The “minimum inhibitory concentration (MIC), Strain C” value in assay [3] is over 32 µg/mL. For the same compound, the “minimum inhibitory concentration (MIC), Strain A” value in assay [4] was 0.5 µg/mL (≈ 0.64 µM). Further, the “minimum inhibitory concentration (MIC), Strain H” value in [5] was over 32 µg/mL. In addition, the “minimum inhibitory concentration (MIC), Strain G” value in [6] turned out to be 32 µg/mL (≈ 41 µM). For the same compound, the “minimum inhibitory concentration (MIC), Strain E” value in assay [7] was “<=0.06 μg/ml”. Besides, the “minimum inhibitory concentration (MIC), Strain F” value in [8] was over 32 µg/mL. In addition, the “minimum inhibitory concentration (MIC), Strain K” value in assay [9] is 8 µg/mL (≈ 10.2 µM). In assay [10], the “minimum inhibitory concentration (MIC), Strain M” value amounted to 8 µg/mL (≈ 10.2 µM). Besides, the “minimum inhibitory concentration (MIC), Strain I” value in assay [11] came out at 8 µg/mL (≈ 10.2 µM). For the same compound, the “minimum inhibitory concentration (MIC), Strain L” value in assay [12] came to 8 µg/mL (≈ 10.2 µM).

In the case of `CC[C@H]1OC(=O)[C@H](C)C(=O)[C@H](C)[C@@H](O[C@@H]2O[C@H](C)C[C@H](N(C)C)[C@H]2O)[C@](C)(OC)C[C@@H](C)C(=O)[C@H](C)[C@H]2[C@@H](SCC(=O)Nc3cc(C)on3)C(=O)O[C@@]21C` [Example 33], in assay [1], the “minimum inhibitory concentration (MIC), Strain D” value was over 32 µg/mL. Also, the “minimum inhibitory concentration (MIC), Strain B” value in [2] turned out to be 0.5 µg/mL (≈ 0.639 µM). Moreover, in assay [3], the “minimum inhibitory concentration (MIC), Strain C” value is over 32 µg/mL. In addition, the “minimum inhibitory concentration (MIC), Strain A” value in assay [4] was 0.5 µg/mL (≈ 0.639 µM). In addition, in assay [5], the “minimum inhibitory concentration (MIC), Strain H” value was over 32 µg/mL. The “minimum inhibitory concentration (MIC), Strain G” value in assay [6] worked out at 32 µg/mL (≈ 40.9 µM). In assay [7], the “minimum inhibitory concentration (MIC), Strain E” value was “<=0.06 μg/ml”. Also, the “minimum inhibitory concentration (MIC), Strain F” value in assay [8] was over 32 µg/mL. In addition, the “minimum inhibitory concentration (MIC), Strain K” value in assay [9] stood at 8 µg/mL (≈ 10.2 µM). The “minimum inhibitory concentration (MIC), Strain M” value in [10] amounted to 8 µg/mL (≈ 10.2 µM). For the same compound, in assay [11], the “minimum inhibitory concentration (MIC), Strain I” value worked out at 16 µg/mL (≈ 20.5 µM). The “minimum inhibitory concentration (MIC), Strain L” value in assay [12] is 8 µg/mL (≈ 10.2 µM).

Regarding `CC[C@H]1OC(=O)[C@H](C)C(=O)[C@H](C)[C@@H](O[C@@H]2O[C@H](C)C[C@H](N(C)C)[C@H]2O)[C@](C)(OC)C[C@@H](C)C(=O)[C@H](C)[C@H]2[C@@H](SCC(=O)NCc3nc4ccccc4s3)C(=O)O[C@@]21C` [Example 34], in assay [1], the “minimum inhibitory concentration (MIC), Strain D” value is over 32 µg/mL. For the same compound, in [2], the “minimum inhibitory concentration (MIC), Strain B” value was 0.5 µg/mL (≈ 0.59 µM). Besides, in [3], the “minimum inhibitory concentration (MIC), Strain C” value was over 32 µg/mL. Besides, the “minimum inhibitory concentration (MIC), Strain A” value in assay [4] amounted to 0.25 µg/mL (≈ 0.295 µM). Besides, the “minimum inhibitory concentration (MIC), Strain H” value in assay [5] is over 32 µg/mL. The “minimum inhibitory concentration (MIC), Strain G” value in assay [6] was over 32 µg/mL. The “minimum inhibitory concentration (MIC), Strain E” value in assay [7] was “<=0.06 μg/ml”. Besides, in [8], the “minimum inhibitory concentration (MIC), Strain F” value was found to be 8 µg/mL (≈ 9.43 µM). The “minimum inhibitory concentration (MIC), Strain K” value in [9] is over 32 µg/mL. In addition, in assay [10], the “minimum inhibitory concentration (MIC), Strain M” value came out at 32 µg/mL (≈ 37.7 µM). In addition, the “minimum inhibitory concentration (MIC), Strain I” value in [11] was 32 µg/mL (≈ 37.7 µM). Moreover, the “minimum inhibitory concentration (MIC), Strain L” value in assay [12] is over 32 µg/mL.

The values are drawn from patent publication US6995143B2, “Macrolides with antibacterial activity” (Basilea Pharmaceutica AG, priority 2002, dated 2006).
